Source: ChEMBL document CHEMBL1201862, “PubChem BioAssay data set” (2004)
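Following 48 hours of exposure in 96-well plates, responses at five concentrations were used to interpolate endpoints linearly. GI50: concentration for 50% inhibition of growth.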 Activity calls are given as the source filed them. Cut-off read from the data, not from the text of the source: active = GI50 up to about 1.1 µM and inactive = higher.

What was measured:
Assay in all cases: NCI tumour cell line growth inhibition, 48 h
Malme-3M = tested on: Malme-3M
SK-MEL-28 = tested on: SK-MEL-28
HOP-18 = tested on: HOP-18
HCT-15 = tested on: HCT-15
UO-31 = tested on: UO-31
NCI-H23 = tested on: NCI-H23
DLD-1 = tested on: DLD-1
SF-539 = tested on: SF-539
KM12 = tested on: KM12
SNB-78 = tested on: SNB-78
SK-MEL-2 = tested on: SK-MEL-2
LXFL 529 = tested on: LXFL 529
SF-268 = tested on: SF-268
NCI-H226 = tested on: NCI-H226
HL-60 = tested on: HL-60
DMS-273 = tested on: DMS-273
NCI/ADR-RES = tested on: NCI/ADR-RES
MDA-MB-231 = tested on: MDA-MB-231
PC-3 = tested on: PC-3
MDA-MB-435 = tested on: MDA-MB-435

| Compound | GI50 (Malme-3M) | GI50 (SK-MEL-28) | GI50 (HOP-18) | GI50 (HCT-15) [µM] | GI50 (UO-31) | GI50 (NCI-H23) | GI50 (DLD-1) | GI50 (SF-539) | GI50 (KM12) | GI50 (SNB-78) | GI50 (SK-MEL-2) | GI50 (LXFL 529) | GI50 (SF-268) | GI50 (NCI-H226) | GI50 (HL-60) | GI50 (DMS-273) | GI50 (NCI/ADR-RES) | GI50 (MDA-MB-231) | GI50 (PC-3) | GI50 (MDA-MB-435) |
| --- | --- | --- | --- | --- | --- | --- | --- | --- | --- | --- | --- | --- | --- | --- | --- | --- | --- | --- | --- | --- |
| CCN(CC)CC(C)(C)C(=O)/C=C/c1ccc(C)cc1 | 9.46 µM (inactive) | 13.5 µM (inactive) | 11.4 µM (inactive) | 3.61 | 10.5 µM (inactive) | > 10 µM (inactive) | 11.5 µM (inactive) | 13.3 µM (inactive) | 5.87 µM (inactive) | 10.7 µM (inactive) | 12.7 µM (inactive) | 7.31 µM (inactive) | 10.1 µM (inactive) | – | – | – | – | – | – | – |
| Cc1ccccc1NC(=O)C(=O)C1CN(c2ccccc2)N=C1N (configuration not stated) | > 100 µM (inactive) | > 100 µM (inactive) | – | – | > 100 µM (inactive) | > 100 µM (inactive) | > 100 µM (inactive) | > 100 µM (inactive) | – | > 100 µM (inactive) | – | > 100 µM (inactive) | > 100 µM (inactive) | > 100 µM (inactive) | > 100 µM (inactive) | – | – | – | – | – |
| Cc1ccc2c(c1)C1(OC(=O)c3ccccc31)c1ccc(F)cc1O2 (configuration not stated) | 67.8 µM (inactive) | – | > 100 µM (inactive) | – | 20.3 µM (inactive) | – | 61.8 µM (inactive) | – | 51.3 µM (inactive) | – | 43.3 µM (inactive) | 56.5 µM (inactive) | 68.4 µM (inactive) | 18.7 µM (inactive) | 21.7 µM (inactive) | – | – | – | – | – |
| CC(=O)OC(C)(C)C[N+](=O)[O-] | > 100 µM (inactive) | > 100 µM (inactive) | – | > 100 | > 100 µM (inactive) | > 100 µM (inactive) | > 100 µM (inactive) | > 100 µM (inactive) | > 100 µM (inactive) | – | > 100 µM (inactive) | > 100 µM (inactive) | > 100 µM (inactive) | > 100 µM (inactive) | 26 µM (inactive) | > 100 µM (inactive) | – | – | – | – |
| Cc1cc(Cl)ccc1/N=C1/NC(=O)C(CC(=O)Nc2cccc(C)c2C)S1 (configuration not stated) | 24.2 µM (inactive) | 30.2 µM (inactive) | – | 28.4 | 21.6 µM (inactive) | 18.2 µM (inactive) | 33.4 µM (inactive) | 21.5 µM (inactive) | 32.4 µM (inactive) | 28.5 µM (inactive) | 20.8 µM (inactive) | – | 26 µM (inactive) | – | – | 26.1 µM (inactive) | – | – | – | – |
| COc1ccc(NC(=O)CC(=O)n2nc(C)c(/N=N/c3ccccc3C(=O)O)c2C)cc1 | > 100 µM (inactive) | > 100 µM (inactive) | – | > 100 | > 100 µM (inactive) | > 100 µM (inactive) | > 100 µM (inactive) | > 100 µM (inactive) | > 100 µM (inactive) | 29.3 µM (inactive) | > 100 µM (inactive) | > 100 µM (inactive) | > 100 µM (inactive) | – | > 100 µM (inactive) | > 100 µM (inactive) | – | – | – | – |
| COC(=O)/C(C#N)=C1\CCC(O)N1C (configuration not stated) | > 100 µM (inactive) | > 100 µM (inactive) | > 100 µM (inactive) | – | > 100 µM (inactive) | > 100 µM (inactive) | > 100 µM (inactive) | > 100 µM (inactive) | > 100 µM (inactive) | > 100 µM (inactive) | > 100 µM (inactive) | > 100 µM (inactive) | > 100 µM (inactive) | > 100 µM (inactive) | > 100 µM (inactive) | – | – | – | – | – |
| O=C(O)C1C(Br)(c2ccccc2)C1(Br)c1ccccc1 (configuration not stated) | 35.6 µM (inactive) | 21.5 µM (inactive) | – | 18.5 | 16.2 µM (inactive) | 38.4 µM (inactive) | – | 52.7 µM (inactive) | 33.4 µM (inactive) | – | 37.5 µM (inactive) | – | 24.3 µM (inactive) | 27.2 µM (inactive) | 12.4 µM (inactive) | – | 52.4 µM (inactive) | 39.7 µM (inactive) | 36.5 µM (inactive) | 41.2 µM (inactive) |
| CCOC(=O)C1=C(Nc2ccccc2)OC/C1=N\NC(=O)Cc1ccccc1 | > 50 µM (inactive) | > 50 µM (inactive) | > 50 µM (inactive) | – | > 50 µM (inactive) | > 50 µM (inactive) | > 50 µM (inactive) | > 50 µM (inactive) | > 50 µM (inactive) | > 50 µM (inactive) | > 50 µM (inactive) | > 50 µM (inactive) | > 50 µM (inactive) | > 50 µM (inactive) | > 50 µM (inactive) | – | – | – | – | – |
| COc1ccc2c(c1)CCCc1c-2nc2ccccc2c1N | 14.1 µM (inactive) | 10.8 µM (inactive) | – | 12.5 | 5.35 µM (inactive) | 15.4 µM (inactive) | – | 12.4 µM (inactive) | 14 µM (inactive) | – | 15.7 µM (inactive) | – | 15.3 µM (inactive) | 13.8 µM (inactive) | 13.9 µM (inactive) | – | 12.9 µM (inactive) | 5.7 µM (inactive) | 10.3 µM (inactive) | 12 µM (inactive) |
| CC1(C)N=C(C2CCCN2C(=O)OCc2ccccc2)OC1=O (configuration not stated) | > 100 µM (inactive) | > 100 µM (inactive) | – | > 100 | > 100 µM (inactive) | > 100 µM (inactive) | – | > 100 µM (inactive) | > 100 µM (inactive) | – | > 100 µM (inactive) | – | > 100 µM (inactive) | > 100 µM (inactive) | > 100 µM (inactive) | – | > 100 µM (inactive) | > 100 µM (inactive) | > 100 µM (inactive) | > 100 µM (inactive) |
| CC(=O)NC1=C(NCC(C)(C)C)C(=O)c2ccccc2C1=O | 34.3 µM (inactive) | > 100 µM (inactive) | – | 55.3 | 46.3 µM (inactive) | 56.5 µM (inactive) | 99.5 µM (inactive) | 32.9 µM (inactive) | 82.6 µM (inactive) | 86.1 µM (inactive) | 69 µM (inactive) | > 100 µM (inactive) | > 100 µM (inactive) | > 100 µM (inactive) | 32.1 µM (inactive) | > 100 µM (inactive) | – | – | – | – |
| S=C(NCc1ccccn1)N/N=C/c1ccccn1 | 0.614 µM (active) | 0.518 µM (active) | – | < 0.01 | < 0.0331 µM (active) | < 0.01 µM (active) | – | < 0.0159 µM (active) | < 0.01 µM (active) | – | 0.0234 µM (active) | – | 0.0214 µM (active) | < 0.0168 µM (active) | < 0.01 µM (active) | – | < 0.01 µM (active) | < 0.01 µM (active) | < 0.01 µM (active) | 0.207 µM (active) |
| CN1C(=O)NC2(O)c3ccccc3C(=O)C12O (configuration not stated) | > 100 µM (inactive) | > 100 µM (inactive) | – | > 100 | > 100 µM (inactive) | > 100 µM (inactive) | > 100 µM (inactive) | – | > 100 µM (inactive) | > 100 µM (inactive) | > 100 µM (inactive) | > 100 µM (inactive) | > 100 µM (inactive) | – | > 100 µM (inactive) | – | – | – | – | – |
| CC(C)(C)C1=NO[C@H]2[C@@H](NC(=O)c3ccccc3)CC[C@@H]12 | > 100 µM (inactive) | > 100 µM (inactive) | – | > 100 | > 100 µM (inactive) | > 100 µM (inactive) | > 100 µM (inactive) | > 100 µM (inactive) | > 100 µM (inactive) | > 100 µM (inactive) | – | > 100 µM (inactive) | > 100 µM (inactive) | > 100 µM (inactive) | > 100 µM (inactive) | – | – | – | – | – |
